Like-named read-outs stand apart in the source and are kept apart here.
Key:
[1] = system: RSV B 9320; assay: CPE assay in HEp-2 cells (resazurin); assay type: cell-based; conditions: human respiratory syncytial virus
[2] = system: HEp-2 cells; assay: Cell viability in HEp-2 cells (resazurin); conditions: concentrations up to 14 μM
[3] = Cell viability in HEp-2 cells (resazurin); conditions: human, HEp-2 cells
[4] = system: PC786 escape mutant (Y1631H) of RSV A2; assay type: cell-based, respiratory syncytial virus; conditions: CPE
[5] = system: RSV A Long; conditions: human respiratory syncytial virus
[6] = system: RSVA 689; assay: microbe, parasite or virus in culture; assay type: cell-based; conditions: human respiratory syncytial virus, RSVA 689, clinical
[7] = system: RSV A Long; assay: CPE assay in HEp-2 cells (resazurin); assay type: cell-based; conditions: human respiratory syncytial virus, laboratory
[8] = system: human mitochondrial polymerase; assay: Human polymerase inhibition in vitro (data not shown); assay type: biochemical; conditions: up to 1 μM
[9] = system: RSV B WST; assay: CPE assay, RSV B Washington in HEp-2 cells (resazurin); assay type: cell-based, respiratory syncytial virus; conditions: human respiratory syncytial virus, HEp-2
[10] = system: Wild type RSVA2 (vehicle control virus); assay: CPE assay, vehicle control (wild type) RSV A2 virus; conditions: human respiratory syncytial virus
[11] = system: RSVB 1262; conditions: human respiratory syncytial virus
[12] = system: Hepatitis C virus GT1b replicon; assay: microbe, parasite or virus in culture; assay type: cell-based
[13] = system: Measles virus (Edmonton strain); assay: microbe, parasite or virus in culture; assay type: cell-based; conditions: MRC5
[14] = system: RSVB 1276; assay: microbe, parasite or virus in culture; assay type: cell-based; conditions: human respiratory syncytial virus, RSVB 1276, clinical, 3 parameter curve fit
[15] = system: HIV-1 (IIIB strain); assay: microbe, parasite or virus in culture; assay type: cell-based, human immunodeficiency virus type 1; conditions: HIV-1, CEM-SS
[16] = system: RSVA 689; conditions: human respiratory syncytial virus
[17] = system: Rhinovirus 16; assay: microbe, parasite or virus in culture; assay type: cell-based, human rhinovirus; conditions: Rhinovirus 16, HeLa
[18] = system: RSV A2; assay: RSV A2-infected BALB/c mice, virus load in lung homogenate; assay type: in vivo
[19] = system: RSVB 1262; assay: microbe, parasite or virus in culture; assay type: cell-based; conditions: human respiratory syncytial virus, RSVB 1262, clinical
[20] = system: RSV A2; assay: CPE assay, RSV A2 in HEp-2 cells (resazurin); assay type: cell-based, respiratory syncytial virus; conditions: human respiratory syncytial virus, HEp-2
[21] = biological target: RSV RdRp activity in crude RSV A L-P complex (Human respiratory syncytial virus A, UniProt P28887); assay: biochemical; conditions: read-out: RdRp activity IC90
[22] = system: RSVB 1000; assay: microbe, parasite or virus in culture; assay type: cell-based; conditions: human respiratory syncytial virus, RSVB 1000, clinical, 3 parameter curve fit
[23] = system: RSV A Long; assay: RSV A Long-infected cotton rats, lung homogenate viral load and transcripts; assay type: in vivo
[24] = HEp-2, read-out: RSV titre in supernatant IC50 (0.3 Log PFUe reduction) (converted)
[25] = HEp-2, read-out: RSV titre in supernatant IC90 (1 Log PFUe reduction) (converted)
[26] = intranasal 0.2 mg/ml (0.19 mg/kg)

Sequence of RSV RdRp activity in crude RSV A L-P complex (P28887 whole entry): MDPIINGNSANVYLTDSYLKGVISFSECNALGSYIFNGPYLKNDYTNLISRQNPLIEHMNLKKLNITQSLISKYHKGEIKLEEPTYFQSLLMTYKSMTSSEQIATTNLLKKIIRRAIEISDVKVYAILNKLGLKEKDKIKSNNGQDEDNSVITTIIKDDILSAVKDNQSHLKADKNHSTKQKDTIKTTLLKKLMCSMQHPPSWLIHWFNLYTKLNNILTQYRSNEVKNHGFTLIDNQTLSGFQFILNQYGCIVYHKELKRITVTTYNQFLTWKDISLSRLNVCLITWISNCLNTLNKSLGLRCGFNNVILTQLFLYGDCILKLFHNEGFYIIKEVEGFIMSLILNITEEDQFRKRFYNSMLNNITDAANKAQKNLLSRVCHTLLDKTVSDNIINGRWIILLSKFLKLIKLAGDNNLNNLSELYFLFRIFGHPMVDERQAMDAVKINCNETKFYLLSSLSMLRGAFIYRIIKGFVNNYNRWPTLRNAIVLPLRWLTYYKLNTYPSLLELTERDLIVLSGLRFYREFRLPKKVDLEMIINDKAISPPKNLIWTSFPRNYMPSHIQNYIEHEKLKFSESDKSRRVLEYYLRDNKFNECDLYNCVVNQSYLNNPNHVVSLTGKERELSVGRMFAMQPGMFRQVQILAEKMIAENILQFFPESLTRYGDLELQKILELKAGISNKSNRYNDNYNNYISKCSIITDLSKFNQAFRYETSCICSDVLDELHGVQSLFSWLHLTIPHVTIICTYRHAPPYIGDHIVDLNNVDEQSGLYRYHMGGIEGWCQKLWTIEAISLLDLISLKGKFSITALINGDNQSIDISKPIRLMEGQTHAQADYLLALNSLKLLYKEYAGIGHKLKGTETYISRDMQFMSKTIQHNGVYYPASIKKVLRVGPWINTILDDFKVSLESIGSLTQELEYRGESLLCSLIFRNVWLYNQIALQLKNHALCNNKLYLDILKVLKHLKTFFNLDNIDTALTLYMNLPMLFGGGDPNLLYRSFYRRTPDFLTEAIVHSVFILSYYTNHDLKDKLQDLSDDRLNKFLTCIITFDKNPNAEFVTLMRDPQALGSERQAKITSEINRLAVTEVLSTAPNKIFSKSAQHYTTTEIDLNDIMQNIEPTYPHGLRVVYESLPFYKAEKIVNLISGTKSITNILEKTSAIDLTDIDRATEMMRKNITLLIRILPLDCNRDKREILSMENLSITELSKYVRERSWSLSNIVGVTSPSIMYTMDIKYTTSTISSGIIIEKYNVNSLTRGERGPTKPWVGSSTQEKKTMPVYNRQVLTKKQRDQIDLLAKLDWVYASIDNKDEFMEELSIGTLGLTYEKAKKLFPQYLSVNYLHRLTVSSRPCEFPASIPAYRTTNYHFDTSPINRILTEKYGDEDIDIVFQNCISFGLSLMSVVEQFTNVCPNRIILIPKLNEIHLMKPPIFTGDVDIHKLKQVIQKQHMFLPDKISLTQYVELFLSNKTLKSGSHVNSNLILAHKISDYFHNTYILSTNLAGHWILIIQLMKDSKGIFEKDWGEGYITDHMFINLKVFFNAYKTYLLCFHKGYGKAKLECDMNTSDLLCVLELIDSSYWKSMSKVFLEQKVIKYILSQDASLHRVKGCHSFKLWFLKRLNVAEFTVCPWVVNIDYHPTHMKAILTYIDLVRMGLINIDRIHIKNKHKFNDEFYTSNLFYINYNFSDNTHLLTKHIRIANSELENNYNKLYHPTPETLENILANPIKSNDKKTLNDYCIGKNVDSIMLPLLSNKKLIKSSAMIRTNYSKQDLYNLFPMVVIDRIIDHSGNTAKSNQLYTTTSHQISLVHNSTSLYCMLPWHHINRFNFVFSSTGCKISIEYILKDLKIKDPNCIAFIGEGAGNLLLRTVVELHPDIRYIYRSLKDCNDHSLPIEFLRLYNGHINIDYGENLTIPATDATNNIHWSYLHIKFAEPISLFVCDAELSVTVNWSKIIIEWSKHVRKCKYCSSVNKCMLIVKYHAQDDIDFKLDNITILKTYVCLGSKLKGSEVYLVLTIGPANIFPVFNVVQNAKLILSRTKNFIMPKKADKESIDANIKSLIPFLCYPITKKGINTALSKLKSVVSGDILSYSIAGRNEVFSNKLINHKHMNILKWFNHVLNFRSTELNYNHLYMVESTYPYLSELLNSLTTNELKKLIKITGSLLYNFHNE
Sequence of RSV RdRp activity in crude RSV A L-P complex (P03421 whole entry, further chain): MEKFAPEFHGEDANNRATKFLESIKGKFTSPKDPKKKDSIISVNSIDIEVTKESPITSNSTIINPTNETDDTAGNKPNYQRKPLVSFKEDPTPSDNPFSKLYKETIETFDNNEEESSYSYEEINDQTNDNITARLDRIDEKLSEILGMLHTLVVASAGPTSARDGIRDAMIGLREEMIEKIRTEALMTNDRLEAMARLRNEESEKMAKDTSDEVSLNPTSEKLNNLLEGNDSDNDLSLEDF

Q: What does the source list for `Cc1cnc(N2CC3(CCOCC3)C2)c(C(=O)Nc2ccc(C(=O)N3CCc4cc(C(=O)Nc5c(C)cccc5F)sc4-c4ccccc43)cc2)c1` [PC786, N-(2-fluoro-6-methylphenyl)-6-(4-(5-methyl-2-(7-oxa-2-azaspiro[3.5]nonan-2-yl)nicotinamido)benzoyl)-5,6-dihydro-4H-benzo[b]thieno[2,3-d]azepine-2-carboxamide]?
A: IC50 [1]: 29.1 nM; IC90 [1]: 64.3 nM; Cell viability [2]: did not affect cell viability; CC50 [3]: > 14000 nM; IC50 ([4]; read-out: PC786 escape mutant IC50, N=3, after 6th passage): 17.9 nM; IC90 ([4]; read-out: PC786 escape mutant IC90, N=3): 1120 nM; IC50 ([5]; HEp-2, read-out: PCR IC50 (0.3 Log PFUe reduction) (converted)): 2.65 nM; IC90 ([5]; HEp-2, read-out: PCR IC90 (1 Log PFUe reduction) (converted)): 3.45 nM; IC50 ([6]; read-out: CPE IC50): 0.5 nM; IC90 ([6]; read-out: CPE IC90): 0.6 nM; IC50 [7]: 2.46 nM; IC90 [7]: 3.25 nM; inhibitory effects on human mitochondrial polymerase [8]: no measurable inhibitory effects; IC50 [9]: 27.3 ± 0.77 nM; IC90 [9]: 57.1 ± 3.87 nM; IC50 ([10]; read-out: Wild type RSVA2 IC50): 0.027 nM; IC90 ([10]; read-out: Wild type RSVA2 IC90): 0.065 nM; IC50 [11, 24]: 9.36 nM; IC90 [11, 25]: 12.3 nM; inhibition at 14 µM ([12]; GT1B, Huh-7, HCV replicon assay, at 14 μM, read-out: maximum inhibition achieved): 74%; IC50 ([12]; Huh-7, GT1b replicon): 320 nM; IC90 or IC95 ([12]; Huh-7, GT1b replicon): >14000 nM; IC90 or IC95 [13]: >14000 nM; IC50 ([13]; Measles morbillivirus): > 14000 nM; IC50 ([14]; read-out: CPE IC50): 50.6 nM; IC90 ([14]; read-out: CPE IC90): 821 nM; IC90 or IC95 [15]: >14000 nM; IC50 ([15]; Human immunodeficiency virus 1, IIIB): > 14000 nM; IC50 [16, 24]: 0.54 nM; IC90 [16, 25]: 1.12 nM; IC50 ([17]; Enterovirus): > 14000 nM; IC90 or IC95 [17]: >14000 nM; Virus titer of lung homogenate, interquartile range [18, 26]: 1.9–3.0 log PFU/ml; Virus titer of lung homogenate, median [18, 26]: 2.5 log PFU/ml; Virus titer of lung homogenate, geometric mean ± SD ([18]; intranasal 0.2 mg/ml (0.19 mg/kg) once daily days −1 to 3): 2.4 ± 0.59 log PFU/ml; Virus titer of lung homogenate, median ([18]; intranasal 2.0 mg/ml (1.9 mg/kg)): <0.33 (LOQ) log PFU/ml; Virus titer of lung homogenate, median ([18]; intratracheal 2.0 mg/ml (3.2 mg/kg)): <0.33 (LOQ) log PFU/ml; IC50 ([19]; read-out: CPE IC50): 14.5 nM; IC90 ([19]; read-out: CPE IC90): 692 nM; IC50 ([20]; RSV A2, laboratory, low-passage isolate study, read-out: CPE assay IC50): 0.96 nM; IC90 ([20]; RSV A2, laboratory, low-passage isolate study, read-out: CPE assay IC90): 1.82 nM; IC50 ([20]; read-out: RSV A2 IC50): 0.5 ± 0.0014 nM; IC90 ([20]; read-out: RSV A2 IC90): 0.63 ± 0.035 nM; IC90 [21]: 21.8 nM; IC50 ([22]; read-out: CPE IC50): 13.4 nM; IC90 ([22]; read-out: CPE IC90): 342 nM; IP-10 transcripts in lung homogenates ([23]; i.n. 0.33-10 mg/ml, day 4): dose-dependent inhibition; RANTES transcripts in lung homogenates ([23]; i.n. 0.33-10 mg/ml, day 4): dose-dependent inhibition; RSV NS-1 gene transcripts in lung homogenates ([23]; i.n. 0.33-10 mg/ml, day 4): dose-dependent inhibition; viral load in lung homogenates on day 4 ([23]; i.n. once daily days 0 to 3, doses of more than […] (165 μg/cotton rat)): lower than the detection limit

— article PMC5571287 (Antimicrobial Agents and Chemotherapy, 2017)
